The values below are quoted from earlier work in PMC3480357, “Fragment-Hopping-Based Discovery of a Novel Chemical Series of Proto-Oncogene PIM-1 Kinase Inhibitors” (PLoS ONE, 2012).

Holding throughout (set-up): method as in PMID 21051136
Common to all, as to details: 10 µM; average of two data points; cited from earlier work

Data set [1] has as its target AKT1 (Homo sapiens, UniProt P31749).
Data set [2] concerns the target JAK2 (Homo sapiens, UniProt O60674).
The target in data set [3] is FAK (Homo sapiens, UniProt Q05397).
Sequence of FAK (Q05397 whole entry, species assumed): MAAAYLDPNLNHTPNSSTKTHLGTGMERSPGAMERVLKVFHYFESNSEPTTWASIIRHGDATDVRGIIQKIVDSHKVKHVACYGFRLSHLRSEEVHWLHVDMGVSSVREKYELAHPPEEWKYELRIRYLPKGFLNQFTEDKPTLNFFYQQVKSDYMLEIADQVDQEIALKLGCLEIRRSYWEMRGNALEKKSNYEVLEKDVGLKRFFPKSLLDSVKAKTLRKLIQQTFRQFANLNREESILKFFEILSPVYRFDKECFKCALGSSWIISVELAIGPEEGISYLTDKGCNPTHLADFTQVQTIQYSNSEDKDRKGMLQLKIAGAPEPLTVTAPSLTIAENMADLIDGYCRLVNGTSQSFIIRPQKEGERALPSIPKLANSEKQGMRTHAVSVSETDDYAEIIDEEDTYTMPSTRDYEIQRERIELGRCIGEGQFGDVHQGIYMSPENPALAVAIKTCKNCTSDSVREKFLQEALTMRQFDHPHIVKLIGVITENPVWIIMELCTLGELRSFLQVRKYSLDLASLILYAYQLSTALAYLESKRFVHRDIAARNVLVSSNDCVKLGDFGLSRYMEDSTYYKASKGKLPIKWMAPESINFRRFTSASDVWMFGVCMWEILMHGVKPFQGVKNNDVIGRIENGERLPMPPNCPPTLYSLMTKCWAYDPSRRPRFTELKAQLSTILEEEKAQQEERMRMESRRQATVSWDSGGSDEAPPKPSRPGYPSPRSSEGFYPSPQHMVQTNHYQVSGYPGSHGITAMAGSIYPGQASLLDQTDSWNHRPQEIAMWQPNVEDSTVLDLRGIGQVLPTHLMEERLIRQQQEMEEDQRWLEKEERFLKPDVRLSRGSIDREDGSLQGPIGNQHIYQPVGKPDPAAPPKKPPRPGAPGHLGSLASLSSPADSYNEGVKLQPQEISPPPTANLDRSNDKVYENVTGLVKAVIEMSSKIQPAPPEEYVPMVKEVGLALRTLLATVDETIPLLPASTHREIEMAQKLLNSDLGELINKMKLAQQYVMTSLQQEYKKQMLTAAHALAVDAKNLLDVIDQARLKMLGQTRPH

Each structure is given as a SMILES string.

Sequence of JAK2 (O60674 whole entry, species assumed): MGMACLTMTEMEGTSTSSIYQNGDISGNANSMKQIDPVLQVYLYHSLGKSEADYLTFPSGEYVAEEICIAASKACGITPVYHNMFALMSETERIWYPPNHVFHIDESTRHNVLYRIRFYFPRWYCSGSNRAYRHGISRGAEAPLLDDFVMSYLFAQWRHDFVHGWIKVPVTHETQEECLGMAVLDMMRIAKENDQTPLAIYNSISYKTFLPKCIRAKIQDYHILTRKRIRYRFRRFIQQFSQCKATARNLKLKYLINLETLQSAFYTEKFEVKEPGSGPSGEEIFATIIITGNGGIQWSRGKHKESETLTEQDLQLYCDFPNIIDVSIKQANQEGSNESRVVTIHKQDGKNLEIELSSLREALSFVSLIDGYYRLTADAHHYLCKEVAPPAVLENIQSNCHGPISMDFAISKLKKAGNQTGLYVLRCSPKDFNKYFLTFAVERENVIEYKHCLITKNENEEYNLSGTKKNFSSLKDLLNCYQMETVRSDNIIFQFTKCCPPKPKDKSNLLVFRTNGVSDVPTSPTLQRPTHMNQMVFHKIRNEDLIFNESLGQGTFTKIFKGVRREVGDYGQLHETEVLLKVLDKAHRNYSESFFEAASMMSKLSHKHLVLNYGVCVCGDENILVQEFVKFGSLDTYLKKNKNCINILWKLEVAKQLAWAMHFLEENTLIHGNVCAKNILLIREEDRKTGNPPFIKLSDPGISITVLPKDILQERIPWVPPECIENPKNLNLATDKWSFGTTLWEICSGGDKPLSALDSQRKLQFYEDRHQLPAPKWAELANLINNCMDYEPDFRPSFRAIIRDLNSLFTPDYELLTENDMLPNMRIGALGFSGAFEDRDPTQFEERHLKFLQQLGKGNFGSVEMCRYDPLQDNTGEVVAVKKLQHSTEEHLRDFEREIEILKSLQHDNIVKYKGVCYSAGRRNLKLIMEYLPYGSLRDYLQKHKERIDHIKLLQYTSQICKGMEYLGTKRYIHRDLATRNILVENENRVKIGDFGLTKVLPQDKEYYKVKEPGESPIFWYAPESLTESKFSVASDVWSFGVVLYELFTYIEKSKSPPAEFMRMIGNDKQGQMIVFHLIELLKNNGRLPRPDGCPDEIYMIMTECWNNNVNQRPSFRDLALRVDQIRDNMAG
Sequence of AKT1 (P31749 whole entry, species assumed): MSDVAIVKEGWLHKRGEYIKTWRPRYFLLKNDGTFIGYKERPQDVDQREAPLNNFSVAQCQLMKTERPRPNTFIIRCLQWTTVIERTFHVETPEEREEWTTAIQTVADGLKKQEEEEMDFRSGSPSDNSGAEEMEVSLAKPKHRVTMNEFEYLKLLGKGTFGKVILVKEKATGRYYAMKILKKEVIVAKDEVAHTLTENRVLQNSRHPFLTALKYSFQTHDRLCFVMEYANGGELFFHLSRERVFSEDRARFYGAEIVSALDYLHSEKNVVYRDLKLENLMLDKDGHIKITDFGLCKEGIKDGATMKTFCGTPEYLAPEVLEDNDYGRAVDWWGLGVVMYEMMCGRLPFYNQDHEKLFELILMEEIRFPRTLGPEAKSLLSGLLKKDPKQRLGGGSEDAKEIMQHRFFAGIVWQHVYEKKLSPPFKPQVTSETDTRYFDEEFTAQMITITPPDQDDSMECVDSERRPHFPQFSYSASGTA

On to `Oc1ccc(-c2cnc3ccc(NCc4ccc(F)cc4)nn23)cc1` [Compound 1], for which, in data set [1], the “AKT1 percentage of inhibition” value is recorded as 0%. Moreover, the “JAK2 percentage of inhibition” value in data set [2] is 48%. In addition, in data set [3], the “FAK percentage of inhibition” value was 48%.
